Experiments:
Type in all cases: physicochemical
[1] = Degradation after formulation; conditions: RrgB321 / K2 / Al—H formulation
Experimental: (§1) The combination of RrgB321 used in this study corresponds to a fusion between RrgB sequences from (3) Taiwan-23F (2) Finland 6B-12 (1) TIGR4, and thus comprises pili of clades III, II and I. Details of RrgB321 are provided in references 235 and 236. RrgB321 was expressed with a His tag. The final RrgB321 vaccine composition contains antigen (0.4 mg/ml), compound K2 (2 mg/ml), Al—H (2 mg/ml), NaCl (9 mg/ml), histidine buffer (10 mM, pH 6.5), formulation volume: 0.05 ml (in water).
(§2) To determine whether the K2 remains adsorbed to Al—H, compositions were prepared as above.

[2] = Adsorption of compound K2 to aluminium hydroxide adjuvant (Al—H); conditions: Al—H 2 mg/ml
Experimental: as §2

[3] = Adsorption of RrgB321 to Al—H (SDS-PAGE)
Experimental: as §1, §2

Row | Compound | degradation patterns after formulation [1] | compound K2 adsorbed to the Al—H ([2]; at all strengths) | K2 remains adsorbed to Al—H ([2]; HPLC, RrgB321 composition) | RrgB321 adsorption to Al—H ([3]; in the absence of K2) | RrgB321 adsorption to Al—H ([3]; in the presence of K2)
1 | Cc1cc(OCCOCCOCCP(=O)(O)O)ccc1CCc1cnc2c(N)nc3cc(CCC(=O)O)ccc3c2c1 [compound K2, 3-(5-amino-2-(2-methyl-4-(2-(2-(2-phosphonoethoxy)ethoxy)ethoxy)phenethyl)benzo[f]-[1,7]naphthyridin-8-yl)propanoic acid] | Neither antigen nor K2 showed detectable degradation patterns | > 95% | at least 97% | – | –
2 | RrgB321: fusion between RrgB sequences from Taiwan-23F, Finland 6B-12 and TIGR4 (clades III, II, I), e.g. SEQ ID NO: 250, His tag | Neither antigen nor K2 showed detectable degradation patterns | – | – | > 95% | approximately 50%
